Counter-ions that a name gives are not always drawn.
Target: T1, estrogen receptor (Homo sapiens, UniProt P03372)
T1 construct: since the MCF-7 cells express estrogen receptors; endogenous in cells; host or cells: MCF-7 human breast carcinoma cells infected with adenovirus 5-ERE-tk-luciferase (reporter only)
T1 sequence (P03372 1-595): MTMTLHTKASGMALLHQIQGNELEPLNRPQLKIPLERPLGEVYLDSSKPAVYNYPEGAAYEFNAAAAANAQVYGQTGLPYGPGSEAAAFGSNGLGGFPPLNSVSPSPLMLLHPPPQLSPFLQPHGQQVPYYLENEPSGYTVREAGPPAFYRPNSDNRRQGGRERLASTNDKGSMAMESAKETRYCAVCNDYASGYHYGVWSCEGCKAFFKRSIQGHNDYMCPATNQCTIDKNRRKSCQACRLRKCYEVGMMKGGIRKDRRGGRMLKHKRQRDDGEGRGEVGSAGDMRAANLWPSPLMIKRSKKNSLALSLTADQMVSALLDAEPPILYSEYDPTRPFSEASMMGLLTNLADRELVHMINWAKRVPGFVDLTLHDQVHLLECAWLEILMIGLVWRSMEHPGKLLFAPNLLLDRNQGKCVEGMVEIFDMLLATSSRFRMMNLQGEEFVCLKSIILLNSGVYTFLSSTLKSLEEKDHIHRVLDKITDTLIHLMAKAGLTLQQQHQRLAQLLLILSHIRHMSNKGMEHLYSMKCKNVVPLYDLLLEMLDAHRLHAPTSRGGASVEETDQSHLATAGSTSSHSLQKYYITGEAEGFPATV
Experiment: MCF-7 ERE-tk-luciferase test procedure, antagonist mode
Assay type: cell-based
Conditions: co-dosed with 10 pM 17β-estradiol, MCF-7 cells infected with adenovirus 5-ERE-tk-luciferase, treated 24 h
Source text: Estrogen antagonist activity was shown for representative compounds of this invention in a standard pharmacological test procedure using MCF-7 cells transfected with an estrogen receptor. When administered orally, the compounds of this invention act at least partially as prodrugs for the corresponding hydroxylated compounds disclosed in EP 802183. Accordingly, the compounds of this invention are tissue selective estrogens, meaning that in certain tissue containing estrogen receptors, the compounds will act as estrogen agonists, and in other tissue containing estrogen receptors, the compounds will act as antagonists. […]
After treatment the cells were lysed on a shaker for 15 min with 25 uL/well of 1× cell culture lysis reagent (Promega Corporation). The cell lysates (20 uL) were transferred to a 96 well luminometer plate, and luciferase activity was measured in a MicroLumat LB 96 P luminometer (EG and G Bethold) using 100 uL/well of luciferase substrate (Promega Corporation). […] Following the injection of the substrate, luciferase activity was measured for 10 seconds after a 1 second delay. The data were transferred from the luminometer to a Macintosh personal computer and analyzed using the JMP software (SAS institute); this program subtracts the background reading from the luciferase measurement for each well and then determine the mean and standard deviation of each treatment. […]

| IC50 [nM] | Structure (SMILES) |
| --- | --- |
| 230 | Cc1c(-c2ccc(O)cc2)n(Cc2ccc(OCCN3CCCCC3)cc2)c2ccc(O[C@@H]3O[C@H](C(=O)O)[C@@H](O)[C@H](O)[C@H]3O)cc12 [Compound 29, 1-[4-(2-Piperidin-1-yl-ethoxy)-benzyl]-2-(4-hydroxy-phenyl)-3-methyl-1H-indol-5-ol 5-O-glucuronide triethylammonium salt] |
| 1200 | Cc1c(-c2ccc(O[C@@H]3O[C@H](C(=O)O)[C@@H](O)[C@H](O)[C@H]3O)cc2)n(Cc2ccc(OCCN3CCCCC3)cc2)c2ccc(O)cc12 [Compound 37, 2-(4-Hydroxy-phenyl)-3-methyl-1-[4-(2-piperidin-1-yl-ethoxy)-benzyl]-1H-indol-5-ol 4-O-Glucuronide Triethyl Ammonium Salt] |

Source: patent US6380166B1, “Glucopyranosides conjugates of 2-(4-hydroxy-phenyl)-3-methyl-1-[4-(2-amin-1-yl-ethoxy)-benzyl]-1H-indol-5-ols” (American Home Products Corporation, priority 1999, dated 2002)
